Measured values as given in US8192962B2, “Processes for detecting toxic substances” (Daikin Industries, Ltd., priority 2001, dated 2012).

Tested on: Genes belonging to other category
Test: DNA chip mRNA expression in yeast, genes belonging to other category (Table 9)
Format: cell-based, Saccharomyces cerevisiae S288C
Experimental: Yeast (Saccharomyces cerevisiae S288C (α SUC2mal mel gap2 CUP1)) were incubated at 25° C. on YPD medium (yeast extract 1%, polypepton 2%, glucose 2%). One of toxic chemical substances was added to the cells at logarithmic growth phase, and the cells were further incubated for two hours. Cells were cultured without any chemical substance in the same condition, and were used as control. Concentrations of the chemical substances were defined to inhibit the growth of the yeast but not lead to death.
After completion of the incubation, the culture was centrifuged to collect the cells. To the cells, sodium acetate buffer (50 mM sodium acetate, 10 mM EDTA, 1% SDS) was added, and the mixture was shaken at 65° C. for five minutes, followed by returning to room temperature, and obtaining the supernatant, of which the procedures were repeated two times. To the supernatant, ½ amount of a solution of phenol/chloroform was added, and the mixture was centrifuged to give a supernatant, which was added with an equal amount of chloroform, and the mixture was centrifuged to give a supernatant. To the supernatant, an equal amount of isopropanol containing 0.3 M sodium acetate was added, and the mixture was allowed to stand at room temperature for 30 minutes, after which the mixture was centrifuged to give a sediment of the whole RNAs. Seventy % ethanol was added to the sediment, and the mixture was again centrifuged to give a sediment, which was then dried and dissolved in water. mRNA was isolated from the whole RNAs as followings. In view of the fact that a poly A chain is attached to the 3′ terminus of mRNA, a polynucleotide having a poly T structure which was immobilized on the surface of latex beads was used to trap the mRNA, and then the mRNA was washed and eluted with spine column (Oligotex-dT30<Super>mRNA Purification Kit, Takara). Reverse transcription of the mRNA was conducted with a reverse transcriptase (Super Script II Reverse Transcriptase; catalogue No. 18064-014, GibcoBRL) using fluorescence-labeled nucleotides to give cDNAs that were introduced with Cy3-dUTP or Cy5-dUTP during the reverse transcription.
The labeled cDNAs were dissolved in TE buffer (10mM Tris-HCl/1 mM EDTA, pH8.0), and the solution was dropped on the DNA chip containing the whole genes of yeast (DNA Chip Research Inc. Japan) so that the cDNAs were hybridized on the DNA chip at 65° C. for over 12 hours. The fluoresces intensity of the DNA chip was read with a scanner, and the ratio relative to the fluorescence intensity resulting from the absence of chemical substance was estimated as the following, which is shown in Tables 1 to 9: […]

**Q.** Which results are given for [Cl][Cd][Cl] [(2), CdCl2]?
**A.** The level of expressed mRNA in the presence of chemical substance/The level of expressed mRNA in the absence of chemical substance (yeast gene YAR010C): 1.2; The level of expressed mRNA in the presence of chemical substance/The level of expressed mRNA in the absence of chemical substance (yeast gene YBL005W-A): 0.9; The level of expressed mRNA in the presence of chemical substance/The level of expressed mRNA in the absence of chemical substance (yeast gene YBL041W): 1.4; The level of expressed mRNA in the presence of chemical substance/The level of expressed mRNA in the absence of chemical substance (yeast gene YBL043W): 1.2; The level of expressed mRNA in the presence of chemical substance/The level of expressed mRNA in the absence of chemical substance (yeast gene YBL078C): 2.7; The level of expressed mRNA in the presence of chemical substance/The level of expressed mRNA in the absence of chemical substance (yeast gene YBR214W): 2.1; The level of expressed mRNA in the presence of chemical substance/The level of expressed mRNA in the absence of chemical substance (yeast gene YCL020W): 2.5; The level of expressed mRNA in the presence of chemical substance/The level of expressed mRNA in the absence of chemical substance (yeast gene YCL027W): 2.0; The level of expressed mRNA in the presence of chemical substance/The level of expressed mRNA in the absence of chemical substance (yeast gene YCR004C): 1.0; The level of expressed mRNA in the presence of chemical substance/The level of expressed mRNA in the absence of chemical substance (yeast gene YCR071C): 0.7; The level of expressed mRNA in the presence of chemical substance/The level of expressed mRNA in the absence of chemical substance (yeast gene YCR088W): 1.1; The level of expressed mRNA in the presence of chemical substance/The level of expressed mRNA in the absence of chemical substance (yeast gene YDL008W): 1.0; The level of expressed mRNA in the presence of chemical substance/The level of expressed mRNA in the absence of chemical substance (yeast gene YDL238C): 1.0; The level of expressed mRNA in the presence of chemical substance/The level of expressed mRNA in the absence of chemical substance (yeast gene YDR055W): 2.1; The level of expressed mRNA in the presence of chemical substance/The level of expressed mRNA in the absence of chemical substance (yeast gene YDR084C): 0.9; The level of expressed mRNA in the presence of chemical substance/The level of expressed mRNA in the absence of chemical substance (yeast gene YDR085C): 1.8; The level of expressed mRNA in the presence of chemical substance/The level of expressed mRNA in the absence of chemical substance (yeast gene YDR104C): 1.1; The level of expressed mRNA in the presence of chemical substance/The level of expressed mRNA in the absence of chemical substance (yeast gene YDR115W): 0.9; The level of expressed mRNA in the presence of chemical substance/The level of expressed mRNA in the absence of chemical substance (yeast gene YDR259C): 1.0; The level of expressed mRNA in the presence of chemical substance/The level of expressed mRNA in the absence of chemical substance (yeast gene YDR315C): 1.4; The level of expressed mRNA in the presence of chemical substance/The level of expressed mRNA in the absence of chemical substance (yeast gene YDR358W): 1.1; The level of expressed mRNA in the presence of chemical substance/The level of expressed mRNA in the absence of chemical substance (yeast gene YDR388W): 0.7; The level of expressed mRNA in the presence of chemical substance/The level of expressed mRNA in the absence of chemical substance (yeast gene YDR432W): 0.8; The level of expressed mRNA in the presence of chemical substance/The level of expressed mRNA in the absence of chemical substance (yeast gene YDR481C): 2.3; The level of expressed mRNA in the presence of chemical substance/The level of expressed mRNA in the absence of chemical substance (yeast gene YDR510W): 1.3; The level of expressed mRNA in the presence of chemical substance/The level of expressed mRNA in the absence of chemical substance (yeast gene YEL042W): 0.9; The level of expressed mRNA in the presence of chemical substance/The level of expressed mRNA in the absence of chemical substance (yeast gene YEL066W): 2.9; The level of expressed mRNA in the presence of chemical substance/The level of expressed mRNA in the absence of chemical substance (yeast gene YER039C): 1.2; The level of expressed mRNA in the presence of chemical substance/The level of expressed mRNA in the absence of chemical substance (yeast gene YER107C): 0.5; The level of expressed mRNA in the presence of chemical substance/The level of expressed mRNA in the absence of chemical substance (yeast gene YER130C): 1.6; The level of expressed mRNA in the presence of chemical substance/The level of expressed mRNA in the absence of chemical substance (yeast gene YFL022C): 0.9; The level of expressed mRNA in the presence of chemical substance/The level of expressed mRNA in the absence of chemical substance (yeast gene YFL028C): 1.1; The level of expressed mRNA in the presence of chemical substance/The level of expressed mRNA in the absence of chemical substance (yeast gene YFL043C): 1.2; The level of expressed mRNA in the presence of chemical substance/The level of expressed mRNA in the absence of chemical substance (yeast gene YGL158W): 2.8; The level of expressed mRNA in the presence of chemical substance/The level of expressed mRNA in the absence of chemical substance (yeast gene YGL229C): 0.7; The level of expressed mRNA in the presence of chemical substance/The level of expressed mRNA in the absence of chemical substance (yeast gene YGR136W): 1.2; The level of expressed mRNA in the presence of chemical substance/The level of expressed mRNA in the absence of chemical substance (yeast gene YGR189C): 0.9; The level of expressed mRNA in the presence of chemical substance/The level of expressed mRNA in the absence of chemical substance (yeast gene YGR213C): 2.9; The level of expressed mRNA in the presence of chemical substance/The level of expressed mRNA in the absence of chemical substance (yeast gene YGR257C): 0.8; The level of expressed mRNA in the presence of chemical substance/The level of expressed mRNA in the absence of chemical substance (yeast gene YHR004C): 1.1; The level of expressed mRNA in the presence of chemical substance/The level of expressed mRNA in the absence of chemical substance (yeast gene YHR071W): 1.1; The level of expressed mRNA in the presence of chemical substance/The level of expressed mRNA in the absence of chemical substance (yeast gene YHR139C): 4.6; The level of expressed mRNA in the presence of chemical substance/The level of expressed mRNA in the absence of chemical substance (yeast gene YHR142W): 0.8; The level of expressed mRNA in the presence of chemical substance/The level of expressed mRNA in the absence of chemical substance (yeast gene YIL123W): 0.5; The level of expressed mRNA in the presence of chemical substance/The level of expressed mRNA in the absence of chemical substance (yeast gene YIL140W): 1.0; The level of expressed mRNA in the presence of chemical substance/The level of expressed mRNA in the absence of chemical substance (yeast gene YJL073W): 0.8; The level of expressed mRNA in the presence of chemical substance/The level of expressed mRNA in the absence of chemical substance (yeast gene YJL089W): 1.5; The level of expressed mRNA in the presence of chemical substance/The level of expressed mRNA in the absence of chemical substance (yeast gene YJL116C): 1.8; The level of expressed mRNA in the presence of chemical substance/The level of expressed mRNA in the absence of chemical substance (yeast gene YJR004C): 0.8; The level of expressed mRNA in the presence of chemical substance/The level of expressed mRNA in the absence of chemical substance (yeast gene YJR086W): 1.1
